Results as given in publication PMC6010121, “Structural re-positioning, in silico molecular modelling, oxidative degradation, and biological screening of linagliptin as adenosine 3 receptor (ADORA3) modulators targeting hepatocellular carcinoma” (Journal of Enzyme Inhibition and Medicinal Chemistry, 2018).
pKi: −log10 of the molar value.

Target: T1, adenosine 3 receptor (ADORA3) (Homo sapiens, UniProt P0DMS8)
T1 construct: recombinant human ADORA3 (Abcam)
T1 sequence (P0DMS8 1-318): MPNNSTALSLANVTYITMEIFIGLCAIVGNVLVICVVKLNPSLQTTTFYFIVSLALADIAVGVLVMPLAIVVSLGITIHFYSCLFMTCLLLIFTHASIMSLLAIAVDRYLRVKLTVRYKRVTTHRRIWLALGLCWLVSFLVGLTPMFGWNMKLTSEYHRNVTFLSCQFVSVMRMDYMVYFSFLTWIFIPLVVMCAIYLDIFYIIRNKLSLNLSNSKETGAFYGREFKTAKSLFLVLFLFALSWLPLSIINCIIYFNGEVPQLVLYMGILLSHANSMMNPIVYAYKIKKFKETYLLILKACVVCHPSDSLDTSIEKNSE
Test: ELISA-based binding inhibition with recombinant human ADORA3 on anti-ADORA3 antibody-coated wells; Ki calculated from IC50 ([…])

CC#CCn1c(N2CCC[C@@H](N)C2)nc2c1c(=O)n(Cc1nc(C)c3ccccc3n1)c(=O)n2C [LIN, linagliptin]
pKi: 7.42
